Key:
[1] = biological target: T1, rat-species vanilloid receptor 1 (VR1/TRPV1) (Rattus norvegicus, UniProt O35433); test: Functional testing on the vanilloid receptor 1, FLIPR Ca2+ influx in rat DRG cells, capsaicin; type: cell-based; design: key to Ki (rat) [nM] Cap: agonist / partial agonist / no effect: AG=agonist; pAG=partial agonist; NE=no effect; conditions: for Ki: capsaicin (Cap), includes values given in brackets after pAG
T1 construct: endogenous in cells; host or cells: primary cells dissociated from rat dorsal root ganglia (DRG), cultured 2-3 days with NGF
From the text: I. Functional Testing Carried Out on the Vanilloid Receptor 1 (VRI/TRPV1 Receptor)
(§1) The agonistic or antagonistic effect of the substances to be tested on the rat-species vanilloid receptor 1 (VR1/TRPV1) can be determined using the following assay. In this assay, the influx of Ca^2+ through the receptor channel is quantified with the aid of a Ca^2+-sensitive dye (type Fluo-4, Molecular Probes Europe BV, Leiden, the Netherlands) in a fluorescent imaging plate reader (FLIPR, Molecular Devices, Sunnyvale, USA).
Complete medium: 50 ml HAMS F12 nutrient mixture (Gibco Invitrogen GmbH, Karlsruhe, Germany) with
10% by volume of FCS (foetal calf serum, Gibco Invitrogen GmbH, Karlsruhe, Germany, heat-inactivated);
2 mM L-glutamine (Sigma, Munich, Germany);
1% by weight of AA solution (antibiotic/antimyotic solution, PAA, Pasching, Austria) and 25 ng/ml NGF medium (2.5 S, Gibco Invitrogen GmbH, Karlsruhe, Germany)
Cell culture plate: Poly-D-lysine-coated, black 96-well plates having a clear base (96-well black/clear plate, BD Biosciences, Heidelberg, Germany) are additionally coated with laminin (Gibco Invitrogen GmbH, Karlsruhe, Germany), the laminin being diluted with PBS (Ca—Mg-free PBS, Gibco Invitrogen GmbH, Karlsruhe, Germany) to a concentration of 100 μg/ml. Aliquots having a laminin concentration of 100 μg/ml are removed and stored at −20° C. The aliquots are diluted with PBS in a ratio of 1:10 to 10 μg/ml of laminin and respectively 50 μL of the solution are pipetted into a recess in the cell culture plate. The cell culture plates are incubated for at least two hours at 37° C., the excess solution is removed by suction and the recesses are each washed twice with PBS. The coated cell culture plates are stored with excess PBS which is not removed until just before the feeding of the cells.
Preparation of the Cells:
The vertebral column is removed from decapitated rats and placed immediately into cold HBSS buffer (Hank's buffered saline solution, Gibco Invitrogen GmbH, Karlsruhe, Germany), i.e. buffer located in an ice bath, mixed with 1% by volume (per cent by volume) of an AA solution (antibiotic/antimyotic solution, PAA, Pasching, Austria). The vertebral column is cut longitudinally and removed together with fasciae from the vertebral canal. Subsequently, the dorsal root ganglia (DRG) are removed and again stored in cold HBSS buffer mixed with 1% by volume of an AA solution. The DRG, from which all blood remnants and spinal nerves have been removed, are transferred in each case to 500 μL of cold type 2 collagenase (PAA, Pasching, Austria) and incubated for 35 minutes at 37° C. After the addition of 2.5% by volume of trypsin (PAA, Pasching, Austria), incubation is continued for 10 minutes at 37° C. After complete incubation, the enzyme solution is carefully pipetted off and 500 μL of complete medium are added to each of the remaining DRG. The DRG are respectively suspended several times, drawn through cannulae No. 1, No. 12 and No. 16 using a syringe and transferred to a 50 ml Falcon tube which is filled up to 15 ml with complete medium. The contents of each Falcon tube are respectively filtered through a 70 μm Falcon filter element and centrifuged for 10 minutes at 1,200 rpm and RT. The resulting pellet is respectively taken up in 250 μL of complete medium and the cell count is determined.
The number of cells in the suspension is set to 3×10^5 per ml and 150 μL of this suspension are in each case introduced into a recess in the cell culture plates coated as described hereinbefore. In the incubator the plates are left for two to three days at 37° C., 5% by volume of CO2 and 95% relative humidity. […]

[2] = biological target: T2, hVR1 (Homo sapiens, UniProt Q8NER1); test: Functional test on VR1, FLIPR Ca2+ influx in transfected CHO K1 cells, capsaicin; type: cell-based, human being; design: key to Ki (human being) [nM] Cap: agonist / partial agonist / no effect: AG=agonist; pAG=partial agonist; NE=no effect; conditions: for Ki: capsaicin (Cap), includes values given in brackets after pAG, read-out: Ki (human being) [nM] Cap
T2 construct: expressed in transfected cells; host or cells: CHO K1 cells (ECACC), stably transfected
From the text: In the process, the Ca^2+ influx is quantified in the FLIPR assay with the aid of a Ca^2+-sensitive dye (type Fluo-4, Molecular Probes Europe BV, Leiden, the Netherlands) in a fluorescent imaging plate reader (FLIPR, Molecular Devices, Sunnyvale, USA), as described hereinafter.
II. Functional Tests Carried Out on the Vanilloid Receptor (VR1)
as §1, with “the” for “the rat-species”, “(VR1)” for “(VR1/TRPV1)”, “can also” for “can”, “the” for “the receptor”
Chinese hamster ovary cells (CHO K1 cells, European Collection of Cell Cultures (ECACC) United Kingdom) are stably transfected with the VR1 gene. For functional testing, these cells are plated out on poly-D-lysine-coated black 96-well plates having a clear base (BD Biosciences, Heidelberg, Germany) at a density of 25,000 cells/well. The cells are incubated overnight at 37° C. and 5% CO2 in a culture medium (Ham's F12 nutrient mixture, 10% by volume of FCS (foetal calf serum), 18 μg/ml of L-proline). The next day the cells are incubated with Fluo-4 (Fluo-4 2 μM, 0.01% by volume of Pluronic F127, Molecular Probes in HBSS (Hank's buffered saline solution), Gibco Invitrogen GmbH, Karlsruhe, Germany) for 30 minutes at 37° C. Subsequently, the plates are washed three times with HBSS buffer and after further incubation for 15 minutes at RT used for Ca^2+ measurement in a FLIPR assay. The Ca^2+-dependent fluorescence is measured before and after the addition of the substances to be tested (λex wavelength=488 nm, λem=540 nm). Quantification is carried out by measuring the highest fluorescence intensity (FC, fluorescence counts) over time.
The FLIPR protocol consists of 2 substance additions. First the compounds to be tested (10 μM) are pipetted onto the cells and the Ca^2+ influx is compared with the control (capsaicin 10 μM) (% activation based on the Ca^2+ signal after the addition of 10 μM of capsaicin). After 5 minutes' incubation, 100 nM of capsaicin are applied and the Ca^2+ influx is also determined.
Desensitising agonists and antagonists led to suppression of the Ca^2+ influx. The % inhibition is calculated compared to the maximum achievable inhibition with 10 μM of capsaicin.
Starting from the percentage displacement caused by different concentrations of the compounds to be tested of general formula I, IC50 inhibitory concentrations which cause a 50-per cent displacement of capsaicin were calculated. Ki values for the test substances were obtained by conversion by means of the Cheng-Prusoff equation (Cheng, Prusoff; Biochem. Pharmacol. 22, 3099-3108, 1973).
The affinity of the compounds according to the invention for the vanilloid receptor 1 (VR1/TRPV1 receptor) was determined as described hereinbefore (pharmacological methods I and II respectively).

[3] = biological target: T2, hVR1; test: Functional test on hVR1 after pH stimulus; type: cell-based, human being; design: key to IC50 (human being) hVR1, pH: agonist / partial agonist / no effect: AG=agonist; pAG=partial agonist; NE=no effect; conditions: for inhibition at 10 µM: read-out: IC50 (human being) hVR1, pH: inhibition (as a percentage)
[4] = biological target: T2, hVR1; test: Functional test on human VR1, 45° C. stimulus; type: cell-based, human being; design: key to IC50 (human being), 45° C.: agonist / partial agonist / no effect: AG=agonist; pAG=partial agonist; NE=no effect; conditions: for IC50: read-out: IC50 (human being) [nM], 45° C.

T2 sequence (Q8NER1 whole entry): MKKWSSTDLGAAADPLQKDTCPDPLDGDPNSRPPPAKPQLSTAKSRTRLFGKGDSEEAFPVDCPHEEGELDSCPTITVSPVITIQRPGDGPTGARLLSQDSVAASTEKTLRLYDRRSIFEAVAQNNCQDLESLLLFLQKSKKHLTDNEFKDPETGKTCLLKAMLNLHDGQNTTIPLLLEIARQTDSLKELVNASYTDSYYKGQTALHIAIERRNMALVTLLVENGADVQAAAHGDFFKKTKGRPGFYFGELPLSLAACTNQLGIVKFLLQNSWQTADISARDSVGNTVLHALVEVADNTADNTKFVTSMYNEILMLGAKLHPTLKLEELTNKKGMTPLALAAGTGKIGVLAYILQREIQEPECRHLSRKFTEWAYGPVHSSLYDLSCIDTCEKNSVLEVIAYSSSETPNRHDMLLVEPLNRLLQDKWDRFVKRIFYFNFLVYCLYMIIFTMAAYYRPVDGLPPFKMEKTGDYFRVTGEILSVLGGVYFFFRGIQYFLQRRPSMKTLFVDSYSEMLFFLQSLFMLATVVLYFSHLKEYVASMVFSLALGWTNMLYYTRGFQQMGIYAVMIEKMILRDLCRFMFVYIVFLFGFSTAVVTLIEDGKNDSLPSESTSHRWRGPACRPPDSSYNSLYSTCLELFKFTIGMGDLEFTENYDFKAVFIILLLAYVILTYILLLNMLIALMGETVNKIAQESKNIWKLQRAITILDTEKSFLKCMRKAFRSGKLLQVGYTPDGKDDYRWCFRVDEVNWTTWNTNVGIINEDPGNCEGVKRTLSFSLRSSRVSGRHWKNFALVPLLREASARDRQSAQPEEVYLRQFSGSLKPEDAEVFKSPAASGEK
T1 sequence (O35433 whole entry): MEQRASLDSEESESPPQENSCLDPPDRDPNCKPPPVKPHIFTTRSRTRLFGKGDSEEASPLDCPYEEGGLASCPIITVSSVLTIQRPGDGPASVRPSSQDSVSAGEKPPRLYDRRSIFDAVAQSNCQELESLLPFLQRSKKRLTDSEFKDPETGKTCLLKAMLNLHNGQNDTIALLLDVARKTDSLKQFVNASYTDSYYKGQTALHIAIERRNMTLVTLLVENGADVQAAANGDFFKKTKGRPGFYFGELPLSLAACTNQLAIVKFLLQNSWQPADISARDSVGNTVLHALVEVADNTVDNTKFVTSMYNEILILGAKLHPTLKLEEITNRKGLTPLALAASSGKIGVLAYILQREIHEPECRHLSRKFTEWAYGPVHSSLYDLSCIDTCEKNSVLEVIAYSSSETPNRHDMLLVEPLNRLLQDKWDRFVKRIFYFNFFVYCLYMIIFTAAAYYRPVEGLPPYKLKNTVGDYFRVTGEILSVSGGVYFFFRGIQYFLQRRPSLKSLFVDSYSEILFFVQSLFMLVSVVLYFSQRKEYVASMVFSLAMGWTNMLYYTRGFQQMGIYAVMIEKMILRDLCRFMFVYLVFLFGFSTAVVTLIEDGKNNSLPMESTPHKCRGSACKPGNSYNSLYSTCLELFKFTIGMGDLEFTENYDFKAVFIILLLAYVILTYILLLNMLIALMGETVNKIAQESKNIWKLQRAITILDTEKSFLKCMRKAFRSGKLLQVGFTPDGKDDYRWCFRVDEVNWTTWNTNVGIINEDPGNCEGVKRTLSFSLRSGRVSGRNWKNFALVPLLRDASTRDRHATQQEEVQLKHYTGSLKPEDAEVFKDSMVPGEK

| Compound | Ki [2] [nM] | IC50 [4] [nM] | Ki (human being) [nM] Cap: agonist / partial agonist / no effect [2] | IC50 (human being) hVR1, pH: agonist / partial agonist / no effect [3] | further results |
| --- | --- | --- | --- | --- | --- |
| CC(C(=O)NCc1cc(C(C)(C)C)nn1-c1cccc(Cl)c1)c1cccc2cnccc12 (centres unmarked) [Example 63, N-((3-tert-butyl-1-(3-chlorophenyl)-1H-pyrazol-5-yl)methyl)-2-(isoquinolin-5-yl)propanamide] | 0.2 |  |  |  | Ki (rat) [nM] Cap: agonist / partial agonist / no effect [1]: pAG; Ki [1]: 0.5 nM; inhibition at 10 µM [3]: 33%; inhibition at 0.6 µM ([4]; @ 0.6 μM, read-out: IC50 (human being), 45° C.: inhibition (as a percentage)): 9% |
| Cc1cc2c(C(C)C(=O)NCc3cc(C(F)(F)F)nn3-c3cccc(Cl)c3)cccc2cn1 (centres unmarked) [Example 65, N-((1-(3-chlorophenyl)-3-(trifluoromethyl)-1H-pyrazol-5-yl)methyl)-2-(3-methylisoquinolin-5-yl)propanamide] | 0.3 | 780 |  |  | inhibition at 10 µM [3]: 23% |
| CC(C(=O)NCc1cc(C(F)(F)F)nn1-c1cccc(Cl)c1)c1ccc2[nH]ncc2c1 (centres unmarked) [Example 35, N-((1-(3-chlorophenyl)-3-(trifluoromethyl)-1H-pyrazol-5-yl)methyl)-2-(1H-indazol-5-yl)propanamide] | 0.3 |  | pAG | pAG | IC50 (human being), 45° C.: agonist / partial agonist / no effect [4]: pAG |
| CC(C(=O)NCc1cc(C(C)(C)C)nn1-c1cccc(Cl)c1)c1cccc2c1OCCO2 (centres unmarked) [Example 14, N-((3-tert-butyl-1-(3-chlorophenyl)-1H-pyrazol-5-yl)methyl)-2-(2,3-dihydrobenzo[b][1,4]dioxin-5-yl)propanamide] |  |  |  |  | Ki (rat) [nM] Cap: agonist / partial agonist / no effect [1]: AG |
| CC(C(=O)NCc1cc(C(F)(F)F)nn1-c1cccc(Cl)c1)c1ccc2[nH]ccc2c1 (centres unmarked) [Example 31, N-((1-(3-chlorophenyl)-3-(trifluoromethyl)-1H-pyrazol-5-yl)methyl)-2-(1H-indol-5-yl)propanamide] | 2.4 |  | pAG | pAG |  |

Continued, in another order:

| Ki [2] [nM] | IC50 [4] [nM] | Ki (human being) [nM] Cap: agonist / partial agonist / no effect [2] | IC50 (human being) hVR1, pH: agonist / partial agonist / no effect [3] | Compound | further results |
| --- | --- | --- | --- | --- | --- |
| 35.4 |  |  |  | CC(C(=O)NCc1cc(C(C)(C)C)nn1-c1cccc(Cl)c1)c1ccc2nccnc2c1 (centres unmarked) [Example 77, N-((3-tert-butyl-1-(3-chlorophenyl)-1H-pyrazol-5-yl)methyl)-2-(quinoxalin-6-yl)propanamide] | Ki [1]: 34.2 nM; inhibition at 10 µM [3]: 23%; inhibition at 10 µM ([4]; @ 10 μM, read-out: IC50 (human being), 45° C.: inhibition (as a percentage)): -17% |
|  |  | AG | AG | CC(C(=O)NCc1cc(C(C)(C)C)nn1-c1cccc(Cl)c1)c1cccc2ncccc12 (centres unmarked) [Example 70, N-((3-tert-butyl-1-(3-chlorophenyl)-1H-pyrazol-5-yl)methyl)-2-(quinolin-5-yl)propanamide] | IC50 (human being), 45° C.: agonist / partial agonist / no effect [4]: AG |
| 7.3 |  | pAG | pAG | O=C(NCc1cc(C(F)(F)F)nn1-c1cccc(Cl)c1)Nc1ccc2ncsc2c1 [Example 96, 1-(benzo[d]thiazol-6-yl)-3-((1-(3-chlorophenyl)-3-(trifluoromethyl)-1H-pyrazol-5-yl)methyl)urea] |  |
| 62.6 | 298 |  |  | CC(C(=O)NCc1cc(C(F)(F)F)nn1-c1cccc(Cl)c1)c1cccc2c1CC(O)C2 (centres unmarked) [Example 208, N-((1-(3-chlorophenyl)-3-(trifluoromethyl)-1H-pyrazol-5-yl)methyl)-2-(2-hydroxy-2,3-dihydro-1H-inden-4-yl)propanamide] |  |
| 50.7 |  |  |  | O=C(NCc1cc(C(F)(F)F)nn1-c1cccc(Cl)c1)Nc1ccc2c(c1)OCO2 [Example 83, 1-(Benzo[d][1,3]dioxol-5-yl)-3-((1-(3-chlorophenyl)-3-(trifluoromethyl)-1H-pyrazol-5-yl)methyl)urea] | inhibition at 2.5 µM ([4]; @ 2.5 μM, read-out: IC50 (human being), 45° C.: inhibition (as a percentage)): 16% |
| 51.6 | 235 |  |  | O=C(NCc1cc(C(F)(F)F)nn1-c1cccc(Cl)c1)Nc1ccc2c(c1)OCCO2 [Example 84, 1-((1-(3-chlorophenyl)-3-(trifluoromethyl)-1H-pyrazol-5-yl)methyl)-3-(2,3-dihydrobenzo[b][1,4]dioxin-6-yl)urea] | Ki [1]: 181 nM |
| 22.4 | 375 |  |  | CC(C)(C)c1cc(CNC(=O)Nc2cccc3cccnc23)n(-c2cccc(Cl)c2)n1 [Example 107, 1-((3-tert-butyl-1-(3-chlorophenyl)-1H-pyrazol-5-yl)methyl)-3-(quinolin-8-yl)urea] |  |

— US8334315B2, “Substituted aromatic carboxamide and urea derivatives as vanilloid receptor ligands” (Gruenenthal GmbH, priority 2009, dated 2012)
